Measured values: patent USRE38132E1, “Phenylpyrrolidines, phenylimidazolidines,3-phenyl-1,3-oxizolidines and 3-phenyl-1,3-thiazolidines and their use in the treatment of inflammatory disease” (Boehringer Ingelheim Pharmaceuticals, Inc., priority 1997, dated 2003)
Like-named read-outs stand apart in the source and are kept apart here.

Tests used:
[1] = target: T1, interaction of ICAM-1 with the Leukointegrin CD18/CD11a (LFA-1) (Homo sapiens, UniProt P05107+P20701); experiment: Assay to determine inhibition of LFA-1 binding to ICAM-1 (immunopurified LFA-1 on plate-bound sICAM-1, ELISA readout)
T1 construct: endogenous in cells; sICAM-1: made in house, secreted from transfected CHO DUX cells
T1 sequence (P20701 26-1170): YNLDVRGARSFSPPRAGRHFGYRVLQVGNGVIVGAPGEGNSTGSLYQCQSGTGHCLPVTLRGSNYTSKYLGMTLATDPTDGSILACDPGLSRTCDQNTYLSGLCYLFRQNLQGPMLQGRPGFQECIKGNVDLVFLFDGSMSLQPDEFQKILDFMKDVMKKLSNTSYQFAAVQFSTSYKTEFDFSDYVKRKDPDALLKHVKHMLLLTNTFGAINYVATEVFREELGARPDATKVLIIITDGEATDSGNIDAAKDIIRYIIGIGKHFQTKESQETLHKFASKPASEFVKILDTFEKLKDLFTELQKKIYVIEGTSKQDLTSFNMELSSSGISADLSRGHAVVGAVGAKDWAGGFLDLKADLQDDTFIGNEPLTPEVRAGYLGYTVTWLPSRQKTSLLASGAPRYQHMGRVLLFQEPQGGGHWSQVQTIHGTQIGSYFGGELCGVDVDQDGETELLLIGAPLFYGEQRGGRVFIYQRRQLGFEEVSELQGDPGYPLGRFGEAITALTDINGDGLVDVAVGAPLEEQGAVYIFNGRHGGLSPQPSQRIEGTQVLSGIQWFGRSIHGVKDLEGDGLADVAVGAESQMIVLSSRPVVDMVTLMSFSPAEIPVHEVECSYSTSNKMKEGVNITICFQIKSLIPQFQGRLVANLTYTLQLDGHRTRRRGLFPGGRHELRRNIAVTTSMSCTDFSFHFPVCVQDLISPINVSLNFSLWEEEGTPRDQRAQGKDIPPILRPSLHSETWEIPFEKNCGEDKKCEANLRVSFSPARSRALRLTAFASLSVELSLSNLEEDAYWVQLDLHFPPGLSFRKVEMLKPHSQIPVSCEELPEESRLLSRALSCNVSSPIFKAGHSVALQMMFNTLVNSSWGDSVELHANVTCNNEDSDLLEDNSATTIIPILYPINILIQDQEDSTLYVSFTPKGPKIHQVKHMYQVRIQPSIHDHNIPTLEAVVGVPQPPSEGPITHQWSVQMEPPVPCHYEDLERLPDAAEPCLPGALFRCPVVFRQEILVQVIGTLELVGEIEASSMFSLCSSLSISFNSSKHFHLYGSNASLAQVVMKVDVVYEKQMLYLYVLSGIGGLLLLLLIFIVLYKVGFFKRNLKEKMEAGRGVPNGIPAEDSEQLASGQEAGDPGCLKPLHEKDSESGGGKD
T1 sequence (P05107 23-769): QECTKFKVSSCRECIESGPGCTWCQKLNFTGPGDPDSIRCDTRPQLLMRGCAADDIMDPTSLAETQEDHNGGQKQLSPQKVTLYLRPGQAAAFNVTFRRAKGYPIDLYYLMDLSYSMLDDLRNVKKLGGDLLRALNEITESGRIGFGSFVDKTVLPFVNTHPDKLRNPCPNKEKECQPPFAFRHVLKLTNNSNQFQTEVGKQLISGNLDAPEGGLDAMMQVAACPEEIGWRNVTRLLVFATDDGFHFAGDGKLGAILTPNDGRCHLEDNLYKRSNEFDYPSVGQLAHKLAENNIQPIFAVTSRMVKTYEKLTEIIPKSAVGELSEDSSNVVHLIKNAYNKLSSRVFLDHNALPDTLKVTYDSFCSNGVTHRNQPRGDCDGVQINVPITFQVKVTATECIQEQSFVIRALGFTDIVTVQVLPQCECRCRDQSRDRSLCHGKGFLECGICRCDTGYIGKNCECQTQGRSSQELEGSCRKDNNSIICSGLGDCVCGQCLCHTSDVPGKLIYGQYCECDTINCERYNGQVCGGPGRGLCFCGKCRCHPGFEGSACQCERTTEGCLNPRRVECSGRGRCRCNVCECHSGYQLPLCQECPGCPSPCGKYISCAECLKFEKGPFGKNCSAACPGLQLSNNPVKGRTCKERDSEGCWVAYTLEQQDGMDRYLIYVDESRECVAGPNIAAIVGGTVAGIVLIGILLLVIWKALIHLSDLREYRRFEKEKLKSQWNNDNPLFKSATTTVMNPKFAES

[2] = test system: cell bound form of LFA-1 (CD18, CD11a) with ICAM-1, SKW3 cells; experiment: Inhibition of SKW3 cell binding to ICAM-1 (PMA-stimulated); format: cell-based, human; conditions: Homo sapiens, read-out: Assay to Detect SKW3 Cells Binding to ICAM IC50
Description: (§1) Assay to Determine Inhibition of SKW3 cell binding to ICAM-1 vs. Binding to Fibronectin
(§2) This assay is used to test the selective ability of a test compound to antagonize the interaction of a cell bound form of LFA-1 with ICAM-1. The assay uses a human T cell line, SKW3 cells which express CD18, CD11a and other integrins not related to CD18, CD11a and which can be “activated” by phorbol esters. Phorbol esters enhance the affinity of CD18, CD11a for ICAM-1.
(§3) This same lymphocyte line, SKW3, also adheres to fibronectin in the presence of phorbol esters. This adhesion is mediated by membrane proteins independent of the LFA-1/ICAM-1 interaction. The SKW3 cells express another integrin, VLA4, which is the receptor for fibronectin. Therefore, as a preliminary indication of the selectivity of a test compounds to interfere with Leukointegrin/CAM interactions but not other integrin-ligand binding events, a compound can be tested for its ability to antagonize cell bound fibronectin receptor in its interaction with purified fibronectin. Compounds that inhibit this fibronectin adhesion are not specific antagonists of the CD18, CD11a/ICAM-1 binding.
(§4) Description of Assay Protocol:
(§5) Ninety-six well plates are coated with either sICAM-1(40 μg/mL) or fibronectin (100 μg/mL) in Diluting buffer for 1 h at room temperature. Added to the wells are 100 μL of the appropriately diluted test compound or 100 μL of RPMI with 15% fetal bovine serum as a control. SKW3 cells, which express CD18, CD11a and VLA4 (Dustin, M.; et al., J. Exp. Med. 1987, 165, 672-692) are washed and suspended to a concentration of 10^6 cells/mL in RPMI with 15% fetal bovine serum. Immediately before adding the cells to the wells, cells are stimulated with the phorbol ester 12-myristate 13-acetate (PMA) for a final concentration of […]. 100 μL of cells are then added to the wells resulting in a final concentration of […]. The plates are incubated for 2 h at 37° C. Unbound or loosely bound cells are gently washed away with RPMI.
(§6) Data are reported as the concentration or concentration range (in μM) at which 50% of binding is inhibited.

[3] = test system: cell bound fibronectin receptor (VLA4) with fibronectin, SKW3 cells; experiment: Inhibition of SKW3 cell binding to fibronectin (selectivity counter-assay); format: cell-based, human; conditions: for IC50: Homo sapiens, read-out: Assay to Detect SKW3 Cells Binding to FIBRONECTIN IC50
Description: as §1, §2, §3, §4, §5, §6

[4] = test system: LFA-1 dependent aggregation of JY cells; experiment: JY cell homotypic aggregation assay (PMA-stimulated); format: cell-based, human; conditions: Homo sapiens
Description: This aggregation can be enhanced by the addition of phorbol esters. […] Thus, the extent of LFA-1-dependent binding may be determined by assessing the extent of spontaneous or phorbol ester-dependent aggregate formation.
An agent which interferes with LFA-1 -dependent aggregation can be identified through the use of an assay capable of determining whether the agent interferes with either spontaneous, or phorbol ester-dependent aggregation of Epstein-Barr virus transformed cells. It is preferable to employ cells of the JY cell line (Terhost, L; et aL, Proc. Natl. Acad. Sci. USA, 1976, 73, 910) for the homotypic aggregation assay. This assay, capable of measuring LFA-1 dependent aggregation, may be employed to identify agents which act as antagonists to the LFA-1 dependent aggregation. Such agents may act by impairing the ability of either LFA-1 or ICAM-1 to mediate aggregation. Thus, agents may be examined to directly determine if they are antagonists of LFA-1 aggregation.
as §4
JY cells are cultured in RPMI 1640 culture medium supplemented with 10% fetal calf serum and 50 μg/mL gentamycin. The cells are cultured at 37° C. in an atmosphere of 5% CO2 at a relative humidity of 95%. JY cells used in this assay are washed two times with RPMI 1640 medium containing 5 mM HEPES buffer and resuspended to a concentration of 2·10^6 cells/mL. Added to flat-bottomed, 96-well microtiter plates are 50 μL of test compound diluted in complete medium, 50 μL of complete medium with or without purified monoclonal antibodies (negative and positive controls for inhibition, respectively), 50 μL of complete medium containing 200 ng/mL of the phorbol ester phorbol myristate acetate (PMA) and 100 μL of cells at a concentration of 2·10^6 cells/mL in complete medium. This yields a final concentration of […] PMA and 2·10^5 cells/well. Cells are allowed to settle spontaneously, and the degree of aggregation is scored at various time points. […] This procedure has been described by Rothlein, R. R.; et al., J. Exp. Med. 1986, 163, 1132-1149. This paper also reported that antibody to LFA-1 is capable of inhibiting the formation of aggregates.
as §6

[5] = test system: SKW3 cells
[6] = No inh = no inhibition observed up to highest dose, exact quantification not always possible due to intrinsic toxicity
[7] = values marked e approximated from incomplete dose-response curve
[8] = SKW3, values marked c: no inhibition observed up to highest dose
[9] = values marked c: no inhibition observed up to highest dose
[10] = SKW3, No inh = no inhibition observed up to highest dose, exact quantification not always possible due to intrinsic toxicity

Row | SMILES | Kd [1] | IC50 ([2]; SKW3) | Assay to Detect SKW3 Cells Binding to FIBRONECTIN IC50 [3, 6] | IC50 [4] | Cellular Toxicity Assay MTT LD50 [5] | Kd [1, 7] | IC50 [2, 8] | Assay to Detect SKW3 Cells Binding to FIBRONECTIN IC50 [3, 9] | IC50 [3, 8] | IC50 [3, 10]
1 | C[C@@]1(Cc2ccc(Br)cc2)C(=O)N(c2cc(Cl)cc(Cl)c2)C(=O)N1CCCNC(=N)N [Example 262] | 0.08 µM | 1 to 2 µM | No inh^c | 0.4 µM | 25 to 75 µM |  |  |  |  | 
2 | CN1C(=O)N(c2cc(Cl)cc(Cl)c2)C(=O)C1(C)Cc1ccc(Br)cc1O (stereo not shown) [Example 248] | 0.37 µM | 9 to 18 µM | No inh^c | 0.7 µM | 50 to 100 µM |  |  |  |  | 
3 | CCN1C(=O)N(c2cc(Cl)cc(Cl)c2)C(=O)[C@@]1(C)Cc1ccc(Br)cc1 [Example 97] |  |  |  | 2 µM | >350 µM | 0.023 µM | 5 to 10 µM | No inh^c |  | 
4 | C[C@@]1(Cc2ccc(Br)cc2)C(=O)N(c2cc(Cl)cc(Cl)c2)C(=O)N1CCCCCCl [Example 121] |  |  |  | 25 µM | <11 µM | 0.21 µM | 0.8 to 2 µM | No inh^c |  | 
5 | Cc1cccc(C)c1CC1(C)C(=O)N(c2cc(Cl)cc(Cl)c2)C(=O)N1C (stereo not shown) [Example 163] |  |  |  | 2.4 µM | 200 to 400 µM | 0.16 µM | 9 to 19 µM |  | > 75 µM | 
6 | C[C@@]1(Cc2ccc(Br)cc2)C(=O)N(c2cc(Cl)cc(Cl)c2)C(=O)N1Cc1cccc(O)c1 [Example 245] | 0.21 µM | 1 to 3 µM | No inh^c | 0.7 µM | 25 to 50 µM |  |  |  |  | 
7 | CC(=O)N1C(=O)N(c2cc(Cl)cc(Cl)c2)C(=O)[C@@]1(C)Cc1ccc(C#N)cc1 [Example 128] |  |  |  | 0.1 µM | 125 to 250 µM | 0.16 µM | 1.5 µM | No inh^c |  | 
8 | CN1C(=O)N(c2cc(Cl)cc(Cl)c2)C(=O)[C@@]1(C)Cc1ccccc1 [Example 266] | 0.14 µM | 25 to 50 µM |  | 3 µM | >500 µM |  |  |  |  | > 50 µM
9 | C[C@@]1(Cc2ccc(Br)cc2)C(=O)N(c2cc(Cl)cc(Cl)c2)C(=O)N1C[C@@H](O)c1ccccc1 [Example 133] |  |  |  | 0.4 µM | >400 µM | 0.15 µM | 5 to 10 µM | No inh^c |  | 
10 | CN1C(=O)N(c2cc(Cl)cc(Cl)c2)C(=O)[C@@]1(C)Cc1ccc([N+](=O)[O-])cc1 [Example 134] |  |  |  | 0.1 µM | >250 µM | 0.05 µM | 1.5 µM | No inh^c |  | 
11 | C[C@@]1(Cc2ccc(Br)cc2)C(=O)N(c2cc(Cl)cc(Cl)c2)C(=O)N1C(=O)[C@H]1CCCN1 [Example 235] | 0.33 µM | 9 µM | No inh^c | 1.6 µM | 100 to 200 µM |  |  |  |  | 
12 | C[C@]1(Cc2ccccc2)NC(=O)N(c2cc(Cl)cc(Cl)c2)C1=O [Example 265] | 0.28 µM | 19 to 38 µM |  | 3 µM | 130 to 250 µM |  |  |  |  | > 75 µM
13 | C[C@]1(Cc2ccc([N+](=O)[O-])cc2)NC(=O)N(c2cc(Cl)cc(Cl)c2)C1=O [Example 44] |  |  |  | 0.3 µM | 63 to 125 µM | 0.42 µM | 6 to 12 µM | No inh^c |  | 
14 | C[C@@]1(Cc2ccc(Br)cc2)C(=O)N(c2cc(Cl)cc(Cl)c2)C(=O)N1Cc1ccccn1 [Example 110] |  |  |  | 9 µM | 200 to 400 µM | 0.15 µM | 25 µM | No inh^c |  | 
15 | CN1C(=S)N(c2cc(Cl)cc(Cl)c2)C(=O)C1(C)Cc1ccc(Br)cc1 (stereo not shown) [Example 80] |  |  |  | 3.2 µM | >400 µM | 0.19 µM | 5 µM | No inh^c |  | 
16 | CN1C(=O)N(c2cc(Cl)cc(Cl)c2)C(=O)[C@@H]1Cc1ccccc1 [Example 87] |  |  |  | 50 µM | >500 µM | 2 µM | 50 to 100 µM |  | > 100 µM | 
17 | CN1C(=O)N(c2cc(Cl)cc(Cl)c2)C(=O)C1(C)Cc1cccc(Br)c1 (stereo not shown) [Example 149] |  |  |  | 2.9 µM | 170 to 340 µM | 0.2 µM | 10 µM |  | > 10 µM | 
18 | CN1C(=O)N(c2cc(Cl)cc(Cl)c2)C(=O)[C@@]1(C)Cc1ccc(-c2cccnc2)cc1 [Example 188] |  |  |  | 0.03 µM | 56 to 112 µM | 0.04 µM | 0.3 to 1 µM | No inh^c |  | 
19 | C[C@@]1(Cc2ccc(Br)cc2)C(=O)N(c2cc(Cl)cc(Cl)c2)C(=O)N1Cc1ccncc1 [Example 103] |  |  |  | 0.13 µM | 25 to 50 µM | 0.1 µM | 25 µM |  | > 25 µM | 
20 | C[C@@]1(Cc2ccc(Br)cc2)C(=O)N(c2cc(Cl)cc(Cl)c2)C(=O)N1C[C@H](O)c1ccccc1 [Example 132] |  |  |  | 2.4 µM | 200 to 400 µM | 0.22 µM | 5 µM | No inh^c |  | 
21 | CCC1(Cc2ccc(Br)cc2)C(=O)N(c2cc(Cl)cc(Cl)c2)C(=O)N1C (stereo not shown) [Example 172] |  |  |  | 0.7 µM | 165 µM | 0.17 µM | 1.8 µM | No inh^c |  | 
22 | COC(=O)c1ccc(CC2(C)C(=O)N(c3cc(Cl)cc(Cl)c3)C(=O)N2C)cc1 (stereo not shown) [Example 140] |  |  |  | 0.2 µM | 180 to 360 µM | 0.11 µM | 1.2 µM |  | > 10 µM | 
23 | COCN1C(=O)N(c2cc(Cl)cc(Cl)c2)C(=O)[C@@]1(C)Cc1ccc(Br)cc1 [Example 131] |  |  |  | 1.1 µM | >400 µM | 0.2 µM | 3 to 5 µM | No inh^c |  | 
